Laboratory results published in patent publication US7169785B2, “Methods and compositions of novel triazine compounds” (Reddy US Therapeutics, Inc., priority 2001, dated 2007).
Where two headings read alike, the source gives them in different places.

What was measured:
[1] = test system: HAEC; test: Toxicity to endothelial cells (HAEC) when TNF stimulated; format: cell-based
Method: (§1) Human aortic endothelial cells (HAEC, Clonetics) were cultured according to manufacturer in growth medium (Clonetics): basal medium containing human epidermal growth factor, hydrocortisone, vascular endothelial growth factor, heparin binding growth factor-B, long R3-insulin-like growth factor-1, ascorbic acid, gentamicin/amphotericin and 5% FBS. These cell were allowed to reach at least 90% confluency before subjected to experimental treatments. Glycated human serum albumin (G-HSA) was from US Biologicals. Tumor necrosis factor α was from R&D Systems.
[…] All treatments, compound-added and controls were carried out in serum free media containing 0.2% albumin. Media from all conditions were collected and used for IL-6 ELISA.

[2] = test system: IL-6; test: TNF-α-induced IL-6 production determined by IL-6 ELISA in HAEC; format: cell-based, human; settings: for activity at 5 µM / activity at 10 µM: Homo sapiens, 24 h; for Inhibition of TNF-induced IL6 production: class of % of control IL6 production
[3] = test system: Human aortic smooth muscle cells; test: Smooth muscle cell proliferation assay (anti-proliferation assay, perlecan); format: cell-based; settings: Homo sapiens, anti-proliferation assay (perlecan)
Method: Human aortic smooth muscle cells (Clonetics) were used. Cells were grown in basal medium containing 5% fetal bovine serum supplemented with growth factors, basic fibroblast growth factor, epidermal growth factor and insulin. […] The cells were then serum starved for 24 h to induce quiescence. Fresh growth medium containing no compound or 10 μM compound was then added and further incubated for 24 h. Cell number was determined by using a cell proliferation assay kit (Celltiter96 AQueous from Promega).

[4] = test system: endothelial cells; test: Toxicity to endothelial cells when AGE stimulated; format: cell-based, human
Method: as §1, with “Glycated human serum albumin (G-HSA) was from US Biologicals.” left out
All treatments, compound-added and controls were carried out in serum free media containing 0.2% albumin. Media from all conditions were collected and used for IL-6 ELISA.

[5] = test system: IL-6; test: AGE (G-HSA)-induced inflammatory response determined by IL-6 ELISA in HAEC; format: cell-based, human; settings: for IC50: IL6, unit inferred, read-out: IC50 (AGE stimulation of IL6); for activity at 10 µM: 24 h, IL6, read-out: % IL6 production compare to AGE stimulation of IL6 (100%)
Outline: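 Human aortic endothelial cells grown to ≥90% confluence, then treated with compounds and stimuli in serum-free medium with 0.2% albumin. Secreted IL-6 in collected media measured by sandwich ELISA (2 ug/ml capture, 200 ng/ml biotinylated detection antibody, streptavidin-HRP), read at 450 nm.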

[6] = test system: heparanase; test: Induction and measurement of endothelial heparanase protein (TNF-induced heparanase secretion); format: cell-based, human; settings: for Relative Activity: inhibition of TNF-induced heparanase secretion, scale at 5 uM compound concentration; for inhibition at 10 µM / inhibition at 5 µM: Homo sapiens
Method: Experiments were carried out on human microvascular endothelial cells (HMVEC) grown in 48-well plates (˜90% confluency). To induce heparanase activity, culture media was replaced with 200 μl Dulbecco's Modified Eagle's medium (DMEM) complemented with 1% bovine serum albumin (BSA) and with or without stimulants (5 ng/ml TGF-alpha, 1 ng/ml IL 1alpha, 200 ng/ml VEGF or other stimulants, cytokines, or inducers as required). The secreted proteins were analyzed by SDS/PAGE and heparanase protein was detected by immunoblotting using polyclonal anti-human heparanase antibody. The changes of heparanase expression determined by densitometric analysis. The induction and measurement of endothelial heparanase protein reported in the Tables herein were carried out according to this Example.

[7] = test system: cells; test: Cytotoxicity / lactate dehydrogenase assay and visual observation of cells; format: cell-based
[8] = HAEC, @ 5 uM, read-out: % IL6 production compare to TNF stimulation of IL6 (100%)
[9] = endothelial cells, AGE stimulated
[10] = Homo sapiens, Compds tested @ 10 uM
[11] = Compds tested @ 10 uM, HAEC, IL6, read-out: % IL6 production compare to TNF stimulation of IL6 (100%)
[12] = read-out: % IL6 production compare to TNF stimulation of IL6 (100%), HAEC, @ 5 uM

With COc1ccc(Nc2nc(NC3CCCCCC3)nc(NC3CCNCC3)n2)cc1Cl [Compound 135, N^2-(3-chloro-4-methoxy-phenyl)-N^4-cycloheptyl-N^6-piperidin-4-yl-1,3,5-triazine-2,4,6-triamine] the “cell death in TNF-stimulated IL6 test” value ([1]; HAEC, @ 10 uM) was “total cell death”, the activity at 5 µM [2, 8] was 60% and the IC50 ([3]; read-out: Activity (note 1)) was 3 to 7 µM. The IC50 ([3]; read-out: Avg IC-50) was 5.83 µM and the “Toxic (AGE-treated)” value [4, 9] was “toxic”.
In the case of CCN1CCCC1CNc1nc(Nc2ccc(OC)c(F)c2)nc(N2CCC[C@H]2COC)n1 (stereo partly shown) [Compound 61], the “% IL6 production compare to AGE stimulation of IL6 (100%)” value ([5]; Compds tested @ 10 uM, IL6) is reported as 38%, the IC50 [5] is reported as 6.47 µM and the “Activity, inhibition of TNF-induced heparanase secretion” value ([6]; @ 10 uM) is reported as 40–60% inhibition @ 10 uM. The “Relative Activity” value [6] was “+ (0–30% inhibition)”, the “% IL6 production compare to TNF stimulation of IL6 (100%)” value ([2]; Compds tested @ 10 uM, HAEC, IL6) was 2% and the “Inhibition of TNF-induced IL6 production” value ([2]; HAEC) was “++++ (between 0 and about 25% of IL6 production compared to cells that did not receive compound (or per cent of control IL6 production))”.
Compound COc1ccc(Nc2nc(NC3CCCCCC3)nc(N(C)C3CCNCC3)n2)cc1Cl [Compound 146, N^2-(3-chloro-4-methoxy-phenyl)-N^4-cycloheptyl-N^6-methyl-N^6-piperidin-4-yl-1,3,5-triazine-2,4,6-triamine] has an IC50 ([3]; read-out: Activity (note 1)) of less than 3 µM, an IC50 ([3]; read-out: Avg IC-50) of roughly 2.2 µM and a melting point of 114 to 116 °C.
Compound COc1ccc(Nc2nc(NC3CCCCCC3)nc(N3CCN(CC(=O)N4CCCC4)CC3)n2)cc1F [Compound 94, N^2-cycloheptyl-N^4-(3-fluoro-4-methoxyphenyl)-6-{4-[2-oxo-(1-pyrrolidinyl)ethyl]-1-piperazinyl}-1,3,5-triazine-2,4-diamine] has an activity at 10 µM [5, 10] of 10%, an IC50 ([5]; Homo sapiens) of 5.8 µM and an inhibition at 10 µM ([6]; @ 10 uM) of 40 to 60%. For the same compound, the “Relative Activity” value [6] was “+ (0–30% inhibition)” and the activity at 10 µM [2, 11] was 32%.
COc1ccc(Nc2nc(Cl)nc(NCC3CCCCC3)n2)cc1F [Compound 125, 6-Chloro-N-cyclohexylmethyl-N′-(3-fluoro-4-methoxy-phenyl)-[1,3,5]triazine-2,4-diamine] gave an IC50 ([3]; read-out: Activity (note 1)) greater than 7 µM, an IC50 ([3]; read-out: Avg IC-50) of 10 µM and a melting point of 156 °C.
In the case of CN1CCC(N(C)c2nc(Nc3ccc(O)c(Cl)c3)nc(NC3CCCCCC3)n2)CC1 [Compound 138], the IC50 ([3]; read-out: Activity (note 1)) is reported as 3 to 7 µM, the IC50 ([3]; read-out: Avg IC-50) is reported as 4.03 µM and the “Toxic (AGE-treated)” value [4] is reported as “toxic”.
For COc1ccc(Nc2nc(NC3CCCCCC3)nc(N3CCCC3)n2)cc1F [Compound 82, N^2-cycloheptyl-N^4-(3-fluoro-4-methoxyphenyl)-6-(1-pyrrolidinyl)-1,3,5-triazine-2,4-diamine], the inhibition at 5 µM [6] was 73%, the “Relative Activity” value [6] was “+++ (70–100% inhibition)” and the activity at 10 µM [2, 11] was 34%.
For CCN1CCCC1CNc1nc(Nc2ccc(OC)c(F)c2)nc(NC(C)(C)C)n1 (stereo not shown) [Compound 52, N^2-(tert-butyl)-N^4-[(1-ethyl-2-pyrrolidinyl)methyl]-N^6-(3-fluoro-4-methoxyphenyl)-1,3,5-triazine-2,4,6-triamine], the activity at 10 µM [5, 10] was 35%, the inhibition at 10 µM ([6]; @ 10 uM) was 40 to 60% and the “Relative Activity” value [6] was “+ (0–30% inhibition)”. The activity at 10 µM [2, 11] was 1%.
With COc1ccc(Nc2nc(NC3CCCCCC3)nc(NC3CCN(Cc4ccccc4)CC3)n2)cc1Cl [Compound 134, N-(1-benzyl-piperidin-4-yl)-N′-(3-chloro-4-methoxy-phenyl)-N″-cycloheptyl-[1,3,5]-2,4,6-triamine] the “cell death in TNF-stimulated IL6 test” value ([1]; HAEC, @ 10 uM) was “total cell death”, the activity at 5 µM [2, 8] was 55% and the “Toxic (AGE-treated)” value [4, 9] was “toxic”.
In the case of COc1ccc(Nc2nc(NC(C)C)nc(N(C)C3CCNCC3)n2)cc1Cl [Compound 107, N^2-(3-chloro-4-methoxy-phenyl)-N^4-isopropyl-N^6-methyl-N^6-piperidin-4-yl-1,3,5-triazine-2,4,6-triamine], the “Inhibition of TNF-induced IL6 production” value ([2]; HAEC) is reported as “++ (between about 50 and about 75% of control IL6 production)”, the activity at 5 µM ([2]; read-out: % IL6 production compare to TNF stimulation of IL6 (100%), @ 5 uM, HAEC, IL6) is reported as 60% and the melting point is reported as 129 °C.
In the case of CCN1CCCC1CNc1nc(Nc2ccc(OC)c(F)c2)nc(N2CCCCCC2)n1 (stereo not shown) [Compound 58, N^2-[(1-ethyl-2-pyrrolidinyl)methyl]-N^4-(3-fluoro-4-methoxyphenyl)-N^6-hexahydro-1H-azepin-1-yl-1,3,5-triazine-2,4-diamine], the activity at 10 µM [5, 10] is reported as 30%, the inhibition at 10 µM ([6]; @ 10 uM) is reported as 40 to 60% and the “Relative Activity” value [6] is reported as “+ (0–30% inhibition)”. It also gave an activity at 10 µM [2, 11] of 1%.
With COc1ccc(Nc2nc(Nc3ccc(OC)c(Cl)c3)nc(N(C)C3CCN(C)CC3)n2)cc1Cl [Compound 121] the “Starts blunting by” value [7] was 1 µM, the “Toxic by toxicity assay at” value [7] was 0.75 µM and the “rounding by” value [7] was 5 µM. For the same compound, the some toxicity ([1]; HAEC, @ 5 uM) was roughly 20%, the “cell death in TNF-stimulated IL6 test” value ([1]; human, 24 h, 10 uM) was “total cell death” and the activity at 5 µM [2, 12] was 50%. For the same compound, the “Toxic (AGE-treated)” value [4] was “toxic”.
With CCN1CCCC1CNc1nc(Nc2ccccc2C)nc(NC2CCCCCC2)n1 (stereo not shown) [Compound 35, N^2-cycloheptyl-N^4-[(1-ethyl-2-pyrrolidinyl)methyl]-N^6-(2-methylphenyl)-1,3,5-triazine-2,4,6-triamine] the activity at 10 µM [5, 10] was 4%, the inhibition at 5 µM [6] was 53% and the “Relative Activity” value [6] was “++ (30–40% inhibition)”. It also gave an activity at 10 µM [2, 11] of 34%.
With CCN(CC)c1ccc(Nc2nc(NCC3CCCN3CC)nc(NC3CCCCCC3)n2)cc1Cl (stereo not shown) [Compound 26, N^2-[3-chloro-4-(diethylamino)phenyl]-N^4-cycloheptyl-N^6-[(1-ethyl-2-pyrrolidinyl)methyl]-1,3,5-triazine-2,4,6-triamine] the cells floating ([1]; TNF-stimulated HAEC, compound @ 10 uM) was greater than 50%, the activity at 10 µM [2, 11] was 1% and the IC50 ([3]; read-out: Activity (note 1)) was greater than 7 µM. The IC50 ([3]; read-out: Avg IC-50) was 7.73 µM.
With COc1ccc(Nc2nc(NC3CCCCCC3)nc(N(C)C3CCNCC3)n2)cc1F [Compound 159, N^2-Cycloheptyl-N^4-(3-fluoro-4-methoxy-phenyl)-N^6-methyl-N^6piperidin-4-yl-1,3,5-triazine-2,4,6-triamine] the “cell death in TNF-stimulated IL6 test” value ([1]; human, 24 h, 5 uM) was “total cell death @ 5 and10 uM”, the “cell death in TNF-stimulated IL6 test” value ([1]; human, 24 h, 10 uM) was “total cell death @ 5 and10 uM” and the IC50 ([3]; read-out: Activity (note 1)) was 3 to 7 µM. The IC50 ([3]; read-out: Avg IC-50) was 5.7 to 6.9 µM and the “Toxic (AGE-treated)” value [4] was “toxic”.
For CCN1CCCC1CNc1nc(Nc2ccc(OC)c(Cl)c2)nc(NC2CN3CCC2CC3)n1 (stereo not shown) [Compound 148], the “cell death in TNF-stimulated IL6 test” value ([1]; human, 24 h, 10 uM) was “total cell death”, the activity at 5 µM [2, 12] was 60% and the IC50 ([3]; read-out: Activity (note 1)) was 3 to 7 µM. The IC50 ([3]; read-out: Avg IC-50) was less than 5 µM and the “Toxic (AGE-treated)” value [4] was “toxic”.
In the case of COc1ccc(Nc2nc(NC3CCCCCC3)nc(N3CCN(C)CC3)n2)cc1F [Compound 87, N^2-cycloheptyl-N^4-(3-fluoro-4-methoxyphenyl)-6-(4-methyl-1-piperazinyl)-1,3,5-triazine-2,4-diamine], the activity at 10 µM [5, 10] is reported as 5%, the inhibition at 10 µM ([6]; @ 10 uM) is reported as 40 to 60% and the “Relative Activity” value [6] is reported as “+ (0–30% inhibition)”.
In the case of COc1ccc(Nc2nc(NCCCCCO)nc(N(C)C3CCNCC3)n2)cc1Cl [Compound 109, 5-[4-(3-chloro-4-methoxy-phenylamino)-6-(methyl-piperidin-4-yl-amino)-1,3,5-triazin-2-ylamino]-pentan-1-ol], the “Inhibition of TNF-induced IL6 production” value ([2]; HAEC) is reported as “+++ (between about 25 and about 50% of control IL6 production)”, the activity at 10 µM ([2]; read-out: % IL6 production compare to TNF stimulation of IL6 (100%), Compds tested @ 10 uM, HAEC, IL6) is reported as 40% and the melting point is reported as 101 °C.
In the case of CCNc1nc(Nc2ccc(OC)c(F)c2)nc(NC2CCCCCC2)n1 [Compound 76, N^2-cycloheptyl-N^4-ethyl-N^6-(3-fluoro-4-methoxyphenyl)-1,3,5-triazine-2,4,6-triamine], the inhibition at 5 µM [6] is reported as 50%, the “Relative Activity” value [6] is reported as “++ (30–40% inhibition)” and the activity at 10 µM [2, 11] is reported as 18%.
